This experiment deals with DNA-PK (Homo sapiens, UniProt P78527). The experiment is described as follows: DNA-PK inhibition assay (radiometric, 33P-ATP). In kind it is biochemical. The following applies: 100 μM ATP, competitive tight-binding fit. Put shortly: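 Approx. 6 nM DNA-PK with 10 µg/mL sheared dsDNA, 0.8 mg/mL peptide substrate and 100 µM 33P-ATP in HEPES pH 7.5, 10 mM MgCl2; 45 min, phosphoric acid quench. Phosphopeptide captured on filter plates and counted by scintillation; Ki from a competitive tight-binding model fit.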

SMILES strings stand for the structures. Some results are limits rather than exact numbers.

Turning to `C[C@H](CNc1cc(-c2ccc3ccncc3c2)ncn1)c1ccnc2c1OCCO2` [Compound 541], the Ki (as a rule, a measure of affinity in units of concentration, obtained from inhibition or displacement) is below 30 nM.
The compound `CNC(=O)c1ccnc2c([C@H](C)CNc3cc(-c4cnc(O)nc4)ncn3)cccc12` [Compound 768] had an inhibition constant (Ki) below 30 nM.
With `Cc1ccc(-c2cc(NCC(C)c3cncc4nccnc34)ncn2)cn1` (stereo not shown) [Compound 407] the figure was below 30 nM; with `CNC(=O)c1ccnc2c([C@H](C)CNc3cc(-c4ccc(C(N)=O)cc4)ncn3)cccc12` [Compound 759], below 30 nM; with `CNC(=O)c1ccc(C(C)CNc2cc(-c3ccc(OCC4CCC4)nc3)ncn2)c(OC)c1` (stereo not shown) [Compound 321], below 30 nM.
Then `C[C@H](CNc1cc(-c2cc(F)c3ncccc3c2)ncn1)c1ccnc2c1OCCO2` [Compound 556], with below 30 nM; and `CNC(=O)c1ccnc2c([C@H](C)CNc3cc(-c4cnc(NC)nc4)ncn3)cccc12` [Compound 579], with below 30 nM.
In turn, `COc1cscc1C(C)CNc1cc(-c2ccc(C)nc2)ncn1` (stereo not shown) [Compound 144] yielded an inhibitory constant (Ki) below 30 nM.
Compound `CNC(=O)c1ccnc2c([C@H](C)CNc3cc(-c4ccnc(N5CCC(O)CC5)c4)ncn3)cccc12` [Compound 819] displayed a Ki below 30 nM.
Take `CNC(=O)c1ccc(C(C)CNc2cc(-c3ccc(OC4CN(C(C)=O)C4)nc3)ncn2)c(OC)c1` (stereo not shown) [Compound 327]: the inhibition constant (Ki) is below 30 nM.
Consider `CCNc1ncc(-c2cc(NC[C@@H](C)c3cccc4c(C(=O)NC)ccnc34)ncn2)cn1` [Compound 942], for which the Ki was below 30 nM.
On to `CNC(=O)c1ccnc2c([C@H](C)CNc3cc(-c4cncc(CO)c4)ncn3)cccc12` [Compound 956], for which the Ki was below 30 nM.
In turn, `CNC(=O)c1ccc(C(C)CNc2cc(-c3ccc(CCO)cc3)ncn2)c(OC)c1` (stereo not shown) [Compound 339] came in with a Ki below 30 nM.
In turn, `CNC(=O)c1ccnc2c([C@H](C)CNc3cc(-c4ccnc(OC)c4)ncn3)cccc12` [Compound 869] registered a Ki below 30 nM.
In the case of `CNC(=O)c1ccnc2c([C@H](C)CNc3cc(-c4cnc(N(C)C)nc4)ncn3)cccc12` [Compound 810], the Ki is below 30 nM.
Take `[2H]C([2H])([2H])NC(=O)c1ccnc2c([C@H](C)CNc3cc(-c4cnc(C)nc4)ncn3)cccc12` [Compound 654]: the inhibitory constant (Ki) was below 30 nM.
With `CNC(=O)c1ccnc2c([C@H](C)CNc3cc(-c4ccc(C(=O)O)nc4)ncn3)cccc12` [Compound 673], the inhibition constant Ki is below 30 nM.
The compound `CNC(=O)c1c(F)cnc2c([C@H](C)CNc3cc(-c4cncc(C#N)c4)ncn3)cccc12` [Compound 963] displayed a Ki below 30 nM.
The compound `COc1cnc(N)cc1[C@H](C)CNc1cc(-c2ccc(C)nc2)ncn1` [Compound 630] showed a Ki below 30 nM.
In the case of `CNC(=O)c1ccc([C@H](C)CNc2cc(-c3ccc(NCCCOC)nc3)ncn2)c(OC)c1` [Compound 375], the Ki was below 30 nM.
With `CCOc1ccccc1C(C)CNc1cc(-c2ccc(N3CCN(C)CC3)nc2)ncn1` (stereo not shown) [Compound 92] the figure was below 30 nM; with `CNC(=O)c1ccc([C@H](C)CNc2cc(-c3ccc(NC4CCN(C)CC4)nc3)ncn2)c(OC)c1` [Compound 348], below 30 nM; with `Cc1ccc(-c2cc(NC[C@@H](C)c3ccnc4c3OCC4C)ncn2)cn1` (single isomer, unassigned) [Compound 576], below 30 nM.
Then `Cc1ccc(-c2cc(NCC(C)c3ccc(F)c4ccoc34)ncn2)cn1` (stereo not shown) [Compound 477], with below 30 nM; and `CC(CNc1cc(-c2cnc3c(cnn3C3CCN(C)CC3)c2)ncn1)c1cccc2cccnc12` (stereo not shown) [Compound 237], with below 30 nM; and `CCOc1ccccc1CCNc1cc(-c2ccc(N3CC[C@H](O)C3)nc2)ncn1` [Compound 98], with below 30 nM.
Take `CNC(=O)c1ccc([C@H](C)CNc2cc(-c3ccc(NCC4CC4)nc3)ncn2)c(OC)c1` [Compound 364]: the Ki is below 30 nM.
With `CNC(=O)c1ccnc2c([C@H](C)CNc3cc(-c4ccc(NC5CC5)nc4)ncn3)cccc12` [Compound 628] the figure was below 30 nM; with `CCOc1cc(F)ccc1C(C)CNc1cc(-c2ccc(C)nc2)ncn1` (stereo not shown) [Compound 100], below 30 nM; with `C[C@H](CNc1cc(-c2cnc3c(cnn3CCO)c2)ncn1)c1cccc2c(C(F)F)c(F)cnc12` [Compound 814], below 30 nM.
For the compound `COc1cc(C(=O)NCC(F)(F)F)ccc1C(C)CNc1cc(-c2ccc(C)nc2)ncn1` (stereo not shown) [Compound 218], the Ki is below 30 nM.
`CNC(=O)c1c(F)cnc2c([C@H](C)CNc3cc(-c4cnc(OC(C)C)nc4)ncn3)cccc12` [Compound 938] gave an inhibition constant Ki below 30 nM.
With `CNC(=O)c1ccc([C@H](C)CNc2cc(-c3cnc(C)nc3)ncn2)c(OC)c1` [Compound 308] the figure was below 30 nM.
In the case of `Cc1ccc(-c2cc(NC[C@@H](C)c3cccc4c3OCC4)ncn2)cn1` [Compound 134], the Ki is below 30 nM.
`CNC(=O)c1ccc(C(C)CNc2cc(-c3ccc(C)nc3)ncn2)c(OC)c1` (stereo not shown) [Compound 123] gave a Ki below 30 nM.
With `Cc1ccc(-c2cc(NCC(C)c3cccc4c3OCC(=O)N4)ncn2)cn1` (stereo not shown) [Compound 435] the figure was below 30 nM.
On to `COc1ccc(C(C)CNc2cc(-c3ccc(C)nc3)ncn2)c(OC)n1` (stereo not shown) [Compound 466], for which the Ki was below 30 nM.
For `Cc1ccc(-c2cc(NCC(C)c3cccc4c(C)ncnc34)ncn2)cn1` (stereo not shown) [Compound 838], the Ki is below 30 nM.
With `COc1ccccc1CCNc1cc(-c2cnc3c(ccn3C(C)C)c2)ncn1` [Compound 37] the figure was below 30 nM.
With `CNC(=O)c1ccc([C@H](C)CNc2cc(-c3ccc4ncccc4c3)ncn2)c(OC)c1` [Compound 454] the figure was below 30 nM; with `C[C@H](CNc1cc(-c2cnc3c(cnn3C3COC3)c2)ncn1)c1ccnc2c1OCCO2` [Compound 493], below 30 nM; with `CNC(=O)c1ccnc2c([C@H](C)CNc3cc(-c4ccnc(C5CCC5)c4)ncn3)cccc12` [Compound 913], below 30 nM.
With `Cc1ncc(-c2cc(NC[C@@H](C)c3ccnc4c3OCC4)ncn2)cn1` [Compound 416] the figure was below 30 nM; with `COc1cc(SC)ccc1C(C)CNc1cc(-c2ccc(N3CCN(C(C)=O)CC3)nc2)ncn1` (stereo not shown) [Compound 73], below 30 nM; with `CNC(=O)c1ccnc2c([C@H](C)CNc3cc(-c4ccc(S(C)(=O)=O)cc4)ncn3)cccc12` [Compound 675], below 30 nM.
Turning to `C[C@H](CNc1cc(-c2cnc3c(cnn3CC(O)CO)c2)ncn1)c1ccnc2c1OCC2` (single isomer, unassigned) [Compound 436], the inhibitory constant (Ki) was below 30 nM.
As to `CNC(=O)c1ccnc2c([C@H](C)CNc3cc(-c4cnc(C5CCOCC5)nc4)ncn3)cccc12` [Compound 831], the Ki is below 30 nM.
In the case of `COc1ccccc1[C@H](C)CNc1cc(-c2cnc3c(cnn3CCO)c2)ncn1` [Compound 127], the inhibitory constant (Ki) was below 30 nM.
Take `CCOc1ccccc1C(C)CNc1cc(-c2ccc(C)nc2)ncn1` (stereo not shown) [Compound 91]: the Ki was below 30 nM.
Then `C[C@H](CNc1cc(-c2cnc3c(cnn3C3COC3)c2)ncn1)c1ccnc2c1OCC2` [Compound 417], with below 30 nM; and `CNC(=O)c1ccc([C@H](C)CNc2cc(-c3cnc4c(ccn4C4COC4)c3)ncn2)c(OC)c1` [Compound 252], with below 30 nM; and `Cc1ccc(-c2cc(NC[C@@H](C)c3ccnc4c3OCC4(C)C)ncn2)cn1` [Compound 583], with below 30 nM.
